Laboratory results: article PMC6271298, “Pharmacophore Generation from a Drug-like Core Molecule Surrounded by a Library Peptide via the 10BASEd-T on Bacteriophage T7” (Molecules, 2014)

Tested on: Sal-conjugated peptide-streptavidin complex
Test: Competitive binding assay with biotin (fluorescence polarization)
Details: various concentrations of biotin; 20 nM peptide (4 pmol) and 15 μM streptavidin (3 nmol); 50 mM Tris-HCl, pH 8.0, 150 mM NaCl, 1 mM TCEP-NaOH
Method: (B) Competitive binding assay. Biotin as a competitor was mixed with the Sal-conjugated peptide-streptavidin complex.
Fluorescence polarization was measured with a HYBRID-3000ES (Photoscience, Tokyo, Japan) equipped with appropriate filters (Ex. 480 nm and Em. 535/40 nm). The Sal-conjugated fluorescent peptide (4 pmol) was incubated with various concentrations of streptavidin, NeutrAvidin, or bovine serum albumin (BSA) in tris-buffered saline (50 mM Tris-HCl, pH 8.0, 150 mM NaCl) supplemented with 1 mM TCEP-NaOH at 30 °C. Concentration of the fluorescent peptide was determined by absorption coefficient at 495 nm. NeutrAvidin® and BSA were purchased from Thermo Scientific and Nacalai tesque, respectively. Concentrations of streptavidin and NeutrAvidin were determined by absorption coefficient at 280 nm. Concentration of BSA was determined by Bradford protein assay (Bio-Rad). Klotz plot was generated by GraphPad Prism software 6.0 (GraphPad Software, San Diego, CA, USA), and the sigmoid curve was fitted with non-linear least squares analysis to obtain the dissociation constant. […] For the competitive binding assay, various concentrations of biotin were added to the solution containing Sal-conjugated peptide-streptavidin complex (4 pmol of the peptide and 3 nmol of streptavidin; 20 nM and 15 μM, respectively). Biotin was purchased from New England Biolabs (Ipswich, MA, USA).

O=C(O)CCCC[C@@H]1SC[C@@H]2NC(=O)N[C@@H]21 [biotin]
disruption of Sal-conjugated peptide-streptavidin interaction by biotin: fully disrupted
